# According to US20210369787A1, “ADIPOCYTE MEDIATED DELIVERY OF ANTICANCER THERAPEUTICS” (NORTH CAROLINA STATE UNIVERSITY, priority 2018, published 2021):
# What was measured:
# PD-L1 = PD-L1 expression of B16F10 in transwell system, Western blot; format: cell-based, mouse
# Procedure: (§1) For Western blot, flow cytometry, and adipokine profiling (R&D Systems catalog no. ARY013), 6 well transwell system was used with cancer cells cultured in the transwell insert and adipocytes in the bottom. Cells or medium were analyzed after co-culturing for 72 h. To determine the role of FABP4 during the crosstalk, 30 μM BMS309403 was added in the medium to block FABP4. Antibodies used for Western blot included β-actin (catalog no. sc-47778, Santa Cruz), FABP4 (catalog no. 701158, Thermo Fisher), PD-L1 (catalog no. ab205921, Abcam). PE channel was used to determine pDox fluorescence in adipocytes and cancer cells.
# B16F10 cells [1] = assay: pDox uptake and transport from adipocytes to B16F10 in transwell, flow cytometry; format: cell-based, mouse
# Procedure: as §1
# B16F10 cells [2] = assay: Transwell co-culture of loaded adipocytes with B16F10, MTT; format: cell-based, mouse
# Procedure: Cytotoxicity of drug and fatty acid was determined by MTT assay in 96-well plate after 48 h. Tumor cell killing or promoting effect of drug or fatty acid loaded adipocytes was determined in a transwell system where adipocytes were seeded in the 24 well plate and tumor cells grew in the transwell insert. After culturing for 72 h, cell proliferation of cancer cells in the transwell insert was determined by MTT assay.
# as §1
# FABP4 [3] = assay: FABP4 amount in B16F10 cells after transwell co-culture, Western blot; format: cell-based, mouse
# Procedure: as §1
# FABP4 [4] = target: FABP4 (Homo sapiens, UniProt P15090); assay: Fluorescence polarization binding of Dox or pDox to FABP4
# Procedure: Fluorescence polarization was measured using QuantaMaster 40 UV/VIS Steady State Spectrofluorometer (Photon Technology International). The dissociation constant (Kd) was calculated for each by fitting the observed polarization ([mP]) to a general equation for two state binding as previously described.2
# [5] = test system: 3T3-L1 cell-differentiated adipocytes; assay: Lipid accumulation in adipocytes, Oil Red O staining; format: cell-based; details: for lipid accumulation in adipocytes: added during 3T3-L1 differentiation, oil red staining
# Procedure: Lipid accumulation in adipocytes was evaluated by Oil Red 0 staining and quantified by optical density measurement at 540 nm. Preadipocytes were cultured, differentiated, and drug encapsulated in 6-well transwell insert, and co-cultured with 5*10^5 pre-cultured B16F10 or fibroblasts in 6 well plate to determine drug release profiles, which was calculated according to drug amount remained in adipocytes. Concentration of free fatty acid in co-cultured medium was measured using Free Fatty Acid Quantitation Kit (Sigma-Aldrich, catalog no. MAK044). […] Then, 100 μL extraction solution (0.75 M HCl in isopropanol) was added and incubated at −20° C. overnight. The fluorescence of supernatant at 498(excitation)/591(emission) nm was measured after centrifugation at 20000 g for 15 min. The maintenance medium was changed three to four times for animal work.
# Chain of FABP4 (Homo sapiens, UniProt P15090) (P15090 whole entry, species assumed): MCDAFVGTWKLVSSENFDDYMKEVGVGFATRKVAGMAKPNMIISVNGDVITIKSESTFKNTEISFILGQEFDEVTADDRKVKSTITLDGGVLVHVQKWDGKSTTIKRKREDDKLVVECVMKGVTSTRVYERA
SMILES,effect on PD-L1 suppression by RA@adipocytes and CLA@adipocyte (PD-L1),effect on uptake of pDox in adipocytes (B16F10 cells [1]; during pDox absorption),effect on RA@adipocyte-promoted pDox uptake (B16F10 cells [1]; transwell co-culture),"effect on transportation of pDox from adipocytes to B16F10 cells (B16F10 cells [1]; transwell, flow cytometry)",effect on cytotoxicity of pDox from adipocytes to B16F10 cells (B16F10 cells [2]; BMS309403 added to transwell medium (30 μM)),effect on cell killing by pDox+RA@adipocytes (B16F10 cells [2]; FABP4 inhibitor in transwell medium),effect on adipocyte-induced rise of FABP4 in B16F10 cells (FABP4 [3]),specific binding to FABP4 (FABP4 [4]),lipid accumulation in adipocytes [5],effect on inhibition of lipid droplet formation by Dox and pDox ([5]; RA added during differentiation)
CCc1c(-c2ccccc2)c(-c2ccccc2)nn1-c1ccccc1-c1cccc(OCC(=O)O)c1 [BMS309403],partially reversed,did not affect,inhibited,partially inhibited,partially reversed,partially reversed,inhibit,–,–,–
"COc1cccc2c1C(=O)c1c(O)c3c(c(O)c1C2=O)C[C@@](O)(C(=O)CO)C[C@@H]3O[C@H]1C[C@H](N)[C@H](O)[C@H](C)O1 [Dox, doxorubicin]",–,–,–,–,–,–,–,almost no specific binding,significantly inhibited,–
"CCCCCC/C=C/C=C\CCCCCCCC(=O)O [RA, 9Z, 11E-conjugated linoleic acid]",–,–,–,–,–,–,–,–,enhance lipid accumulation,partially reversed
